Entries after “also recorded” stand apart in the source; their conditions may differ. Where two headings read alike, the source gives them in different places. Each block holds one compound with its values, some of them ahead of it. Starred links: 1 amine or outer side, 2 acyl side, 3 side chain; linkers in the order of their positions; H or OH if unused. Positions of bridges follow the written chain, without caps; N, C: chain ends. Non-standard residues stand in square brackets, D forms with d. Residues, ends and D or L forms follow the SMILES beside them. Chains are numbered I, II in the order given. Actinocin(9to1) = Cc1c2oc3c(C)ccc(C(=O)[*:1])c3nc-2c(C(=O)[*:2])c(N)c1=O; NMeV = CN[C@H](C(=O)O)C(C)C; Sar = CNCC(=O)O
Assays:
[1] = test system: Panc02.13 cells expressing the YAPS6A mutant; assay: 3D spheroid growth assay, Panc02.13 cells expressing YAPS6A; assay type: cell-based, human; details: YAP activity increased
Panc02.13 cells = assay: 3D spheroid growth assay, Panc02.13 (GFP/parental) cells; details: for Efficacy in inhibiting cell growth when the Hippo pathway was not inhibited: Hippo-YAP pathway active; for Inhibition in high density growth conditions: 3D-spheroid screen
[2] = test system: Panc02.13 cells expressing vector only (02.13-WT); assay: Kinetic cell growth assay, Panc02.13 cells expressing vector only; assay type: cell-based, human
Method: (§1) Panc02.13 cells were used to express YAPS6A (or vector controls) under sparse and dense cultures. Expression was confirmed by confocal microscopy (data not shown). Suppression of the Hippo pathway by expression of non-phospho, active form of YAP (YAPS6A) sensitized pancreatic cancer cells to gemcitabine and 5-FU (FIGS. 6 and 7). Apoptosis was measured by immunobloting with cleaved caspases 3/7 or PARP. Blots were also stained with anti-β-actin for loading control. The effect of Hippo pathway suppression on gemcitabine and 5-FU senstitization was maintained in 3D spheroid culture (FIG. 8). The effects of eleven cytotoxic drugs on the growth of Panc02.13 cells expressing vector only or YAPS6A construct grown under low or high densities were determined (Table 1).
(§2) The effect of gemcitabine on pancreatic cancer cell growth was studied using a kinetic cell growth assay. Pancreatic cancer cells were plated on 96-well plates (Essen ImageLock, Essen Instruments, MI, US) at varying densities (2-4×10^3 for low density or 15-20×10^3 for high density experiments). Small molecule inhibitors at different doses were added 24 hours after plating and cell confluence was monitored with Incucyte Live-Cell Imaging System and software (Essen Instruments). Confluence was observed every hour for 48-144h or until the control (DMSO only) samples reached 100% confluence.
as §2, with “Kinetic Cell growth assay. The” for “The”, “(2-4X103” for “(2-4×10^3”, “15-20X103” for “15-20×10^3”, “Incucyte™” for “Incucyte”

[3] = test system: Panc02.13 cells expressing YAPS6A construct; assay: Kinetic cell growth assay, Panc02.13 cells expressing YAPS6A; assay type: cell-based, human; details: for EC50: YAPS6A construct
Method: as §1, §2
Cell lines (Panc02.13, Panc10.05 or Miapaca2) were transfected with YAPS6A constructs (Addgene) using Lipofectamine™ (Invitrogen, Carlsbad, Calif.) following the manufacturer's instructions and 48 hour post-transfection selected in 5-10 μg/ml Blasticidin (InvivoGen, San Diego, Calif.). The clones screened for YAPS6A expression by Western blot. Stable cell lines were maintained in complete medium and 5 μg/ml Blasticidin.
as §2, with “Kinetic Cell growth assay. The” for “The”, “(2-4X103” for “(2-4×10^3”, “15-20X103” for “15-20×10^3”, “Incucyte™” for “Incucyte”

[4] = test system: pancreatic cancer cell lines; assay: Kinetic cell growth assay, panel of pancreatic cancer cell lines; assay type: cell-based, human; details: for Dependence of cellular response on cell crowding: seven PDAC cell lines, threshold >100 fold difference in EC50; for Density dependence of efficacy: seven pancreatic cancer cell lines, sparse and dense conditions
Method: as §2
FIG. 20A illustrates the kinetic cell growth assay to determine the effect of gemcitabine in a panel of pancreatic cancer cell lines. Cells are plated at low crowding conditions (10-25% confluence) and 24 hours later exposed to gemcitabine in a dose-dependent manner. They are imaged every 1-3 hours until control (vehicle) treated cells reach 100% confluence. This assay is not confounded by the fact that the time required for each cell line to reach 100% confluence may be very different (as the cell lines have different doubling times). A dose response effect of gemcitabine on cell growth for 16 pancreatic cancer cell lines is shown in FIGS. 20B, 3, 31A-31C and 28, where the range of previous studies is also shown. […] Similar responses to gemcitabine were found in liver cancer cell lines (Huh7 and FOCUS) and untransformed (HEK293) cell lines (FIGS. 3, 31A-31C).
as §2, with “Kinetic Cell growth assay. The” for “The”, “(2-4X103” for “(2-4×10^3”, “15-20X103” for “15-20×10^3”, “Incucyte™” for “Incucyte”

[5] = Homo sapiens, high density, read-out: High density (EC50, nM) 02.13-WT
[6] = Homo sapiens, low density, read-out: Low density (EC50, nM) 02.13-WT
[7] = Homo sapiens, high density, read-out: High density (EC50, nM) 02.13-YAPS6A
[8] = Homo sapiens, low density, read-out: Low density (EC50, nM) 02.13-YAPS6A
[9] = high density, read-out: High density (EC50, nM) 02.13-WT
[10] = low density, read-out: Low density (EC50, nM) 02.13-WT
[11] = high density, read-out: High density (EC50, nM) 02.13-YAPS6A
[12] = low density, read-out: Low density (EC50, nM) 02.13-YAPS6A

Compound: S=c1nc[nH]c2nc[nH]c12 [mercaptopurine]
Efficacy in inhibiting cell growth when the Hippo pathway was inhibited [1]: increased efficacy in inhibiting cell growth

Compound: C1CN1c1nc(N2CC2)nc(N2CC2)n1 [triethylenemelamine]
Efficacy in inhibiting cell growth when the Hippo pathway was not inhibited (Panc02.13 cells): demonstrated efficacy at higher doses

Compound: CO[C@H]1C[C@@H]2CC[C@@H](C)[C@@](O)(O2)C(=O)C(=O)N2CCCC[C@H]2C(=O)O[C@H]([C@H](C)C[C@@H]2CC[C@@H](OCCO)[C@H](OC)C2)CC(=O)[C@H](C)/C=C(\C)[C@@H](O)[C@@H](OC)C(=O)[C@H](C)C[C@H](C)/C=C/C=C/C=C/1C [Everolimus]
Efficacy in inhibiting cell growth when the Hippo pathway was not inhibited (Panc02.13 cells): demonstrated efficacy at higher doses

Compound: CCCCC(=O)OCC(=O)[C@]1(O)Cc2c(O)c3c(c(O)c2[C@@H](O[C@H]2C[C@H](NC(=O)C(F)(F)F)[C@H](O)[C@H](C)O2)C1)C(=O)c1c(OC)cccc1C3=O [valrubicin]
Efficacy in inhibiting cell growth when the Hippo pathway was inhibited [1]: increased efficacy in inhibiting cell growth
Efficacy in inhibiting cell growth when the Hippo pathway was not inhibited (Panc02.13 cells): efficacious in inhibiting cell growth

Compound: CC[C@@]1(O)C(=O)OCc2c1cc1n(c2=O)Cc2cc3ccccc3nc2-1 [Camtothecin, Camptothecin]
EC50 [2, 5]: 15 nM
EC50 [2, 6]: 5.2 nM
EC50 [3, 7]: 9 nM
EC50 [3, 8]: 6 nM
Dependence of cellular response on cell crowding [4]: weak or no correlation with cell density
Density dependence of efficacy [4]: density-dependent
Efficacy in inhibiting cell growth when the Hippo pathway was inhibited [1]: increased efficacy in inhibiting cell growth

Compound: CC(C)C[C@H](NC(=O)[C@H](CCc1ccccc1)NC(=O)CN1CCOCC1)C(=O)N[C@@H](Cc1ccccc1)C(=O)N[C@@H](CC(C)C)C(=O)[C@@]1(C)CO1 [carfilzomib]
Inhibition in high density growth conditions (Panc02.13 cells): significant inhibition
Efficacy in inhibiting cell growth when the Hippo pathway was not inhibited (Panc02.13 cells): effective in preventing cancer cell growth independent of the state of Hippo-YAP signaling pathway activity; also recorded: efficacious in inhibiting cell growth

Compound: CO[C@@]12[C@H](COC(N)=O)C3=C(C(=O)C(C)=C(N)C3=O)N1C[C@@H]1N[C@@H]12 [mitomycin]
Efficacy in inhibiting cell growth when the Hippo pathway was inhibited [1]: increased efficacy in inhibiting cell growth

Compound: CNC(=O)c1ccc(N2C(=S)N(c3ccc(C#N)c(C(F)(F)F)c3)C(=O)C2(C)C)cc1F [enzalutamide]
Efficacy in inhibiting cell growth when the Hippo pathway was not inhibited (Panc02.13 cells): effective in preventing cancer cell growth independent of the state of Hippo-YAP signaling pathway activity; also recorded: efficacious in inhibiting cell growth

Compound: Nc1nc(Cl)nc2c1ncn2[C@@H]1O[C@H](CO)[C@@H](O)[C@@H]1F [clofarabine]
Efficacy in inhibiting cell growth when the Hippo pathway was inhibited [1]: increased efficacy in inhibiting cell growth

Compound: Epothilone
EC50 [2, 9]: 20 nM
EC50 [2, 10]: < 1 nM
EC50 [3, 11]: 767 nM
EC50 [3, 12]: < 1 nM

Compound: CC(C)C[C@H](NC(=O)[C@H](Cc1ccccc1)NC(=O)c1cnccn1)B(O)O [bortezomib]
Efficacy in inhibiting cell growth when the Hippo pathway was not inhibited (Panc02.13 cells): effective in preventing cancer cell growth independent of the state of Hippo-YAP signaling pathway activity; also recorded: efficacious in inhibiting cell growth

Compound: Nc1nc2nc[nH]c2c(=S)[nH]1 [tioguanine]
Efficacy in inhibiting cell growth when the Hippo pathway was inhibited [1]: increased efficacy in inhibiting cell growth

Compound: Nc1ccn([C@@H]2O[C@H](CO)[C@@H](O)[C@@H]2O)c(=O)n1 [cytarabine]
Efficacy in inhibiting cell growth when the Hippo pathway was inhibited [1]: increased efficacy in inhibiting cell growth

EC50 [2, 9]: 8500 nM
EC50 [2, 10]: 1070 nM
EC50 [3, 11]: 1650 nM
EC50 [3, 12]: 1700 nM
Compound: CCc1c2c(nc3ccc(OC(=O)N4CCC(N5CCCCC5)CC4)cc13)-c1cc3c(c(=O)n1C2)COC(=O)[C@]3(O)CC [Irrenotecan]
Efficacy in inhibiting cell growth when the Hippo pathway was inhibited [1]: increased efficacy in inhibiting cell growth; also recorded: particularly significant inhibitory activity

Compound: O=C1[O][Pt]2([NH][C@@H]3CCCC[C@H]3[NH]2)[O]C1=O [Oxaliplatin]
EC50 [2, 9]: 5200 nM
EC50 [2, 10]: 937 nM
EC50 [3, 11]: 3180 nM
EC50 [3, 12]: 5890 nM
Dependence of cellular response on cell crowding [4]: weak or no correlation with cell density
Density dependence of efficacy [4]: largely density independent

Compound: Cc1c2oc3c(C)ccc(C(=O)N[C@@H]4C(=O)N[C@H](C(C)C)C(=O)N5CCC[C@H]5C(=O)N(C)CC(=O)N(C)[C@@H](C(C)C)C(=O)O[C@@H]4C)c3nc-2c(C(=O)N[C@@H]2C(=O)N[C@H](C(C)C)C(=O)N3CCC[C@H]3C(=O)N(C)CC(=O)N(C)[C@@H](C(C)C)C(=O)O[C@@H]2C)c(N)c1=O [dactinomycin] (I: T[dV]P[Sar][NMeV] / II: T[dV]P[Sar][NMeV]; ester I:1-I:C, II:1-II:C; linker I:N-II:N via Actinocin(9to1))
Inhibition in high density growth conditions (Panc02.13 cells): significant inhibition
Efficacy in inhibiting cell growth when the Hippo pathway was not inhibited (Panc02.13 cells): effective in preventing cancer cell growth independent of the state of Hippo-YAP signaling pathway activity; also recorded: efficacious in inhibiting cell growth

Compound: COc1cccc2c1C(=O)c1c(O)c3c(c(O)c1C2=O)C[C@@](O)(C(C)=O)C[C@@H]3O[C@H]1C[C@H](N)[C@H](O)[C@H](C)O1 [daunorubicin]
Efficacy in inhibiting cell growth when the Hippo pathway was inhibited [1]: increased efficacy in inhibiting cell growth
Efficacy in inhibiting cell growth when the Hippo pathway was not inhibited (Panc02.13 cells): efficacious in inhibiting cell growth

EC50 [2, 5]: > 10000 nM
EC50 [2, 6]: 350 nM
EC50 [3, 7]: 3000 nM
Compound: O=c1[nH]cc(F)c(=O)[nH]1 [5-FU, 5-fluorouracil]
Sensitization by expression of YAPS6A ([3]; suppression of the Hippo pathway, high cell density): sensitized
Efficacy in inhibiting cell growth when the Hippo pathway was inhibited [1]: increased efficacy in inhibiting cell growth

Compound: C/C(=C\c1csc(C)n1)[C@@H]1C[C@@H]2O[C@]2(C)CCC[C@H](C)[C@H](O)[C@@H](C)C(=O)C(C)(C)[C@@H](O)CC(=O)N1 [ixabepilone]
Efficacy in inhibiting cell growth when the Hippo pathway was inhibited [1]: increased efficacy in inhibiting cell growth

Compound: Cc1ccc(NC(=O)c2ccc(CN3CCN(C)CC3)cc2)cc1Nc1nccc(-c2cccnc2)n1 [imatinib]
Efficacy in inhibiting cell growth when the Hippo pathway was inhibited [1]: increased efficacy in inhibiting cell growth

EC50 [2, 5]: 2400 nM
EC50 [2, 6]: 3.5 nM
EC50 [3, 7]: 4820 nM
EC50 [3, 8]: 7 nM
Compound: CC(=O)O[C@@]12CO[C@@H]1C[C@H](O)[C@@]1(C)C(=O)[C@H](O)C3=C(C)[C@@H](OC(=O)[C@H](O)[C@@H](NC(=O)OC(C)(C)C)c4ccccc4)C[C@@](O)([C@@H](OC(=O)c4ccccc4)[C@H]21)C3(C)C [Docetaxel]
Dependence of cellular response on cell crowding [4]: weak or no correlation with cell density
Density dependence of efficacy [4]: largely density independent

EC50 [2, 5]: 1670 nM
EC50 [2, 6]: 3 nM
EC50 [3, 8]: 3 nM
Compound: CC(=O)O[C@H]1C(=O)[C@@]2(C)[C@H]([C@H](OC(=O)c3ccccc3)[C@]3(O)C[C@H](OC(=O)[C@H](O)[C@@H](NC(=O)c4ccccc4)c4ccccc4)C(C)=C1C3(C)C)[C@]1(OC(C)=O)CO[C@@H]1C[C@@H]2O [Paclitaxel]
Dependence of cellular response on cell crowding [4]: weak or no correlation with cell density
Density dependence of efficacy [4]: largely density independent

Compound: COC(=O)C[C@](O)(CCCC(C)(C)O)C(=O)O[C@@H]1C(OC)=C[C@]23CCCN2CCc2cc4c(cc2[C@H]13)OCO4 [omacetaxine mepesuccinate]
Efficacy in inhibiting cell growth when the Hippo pathway was not inhibited (Panc02.13 cells): effective in preventing cancer cell growth independent of the state of Hippo-YAP signaling pathway activity; also recorded: efficacious in inhibiting cell growth
